Data published in patent publication US10729628B2, “Tyrosinase inhibitors” (Conopco, Inc., priority 2015, dated 2020).

Legend:
mushroom tyrosinase (MT) = test: Tyrosinase assay by oxidation of DOPA, mushroom tyrosinase; assay type: biochemical; details: 37° C., 45 minutes; for OD475 nm (MT): background-corrected, uninhibited enzyme control 0.17
Method: (§1) The (tyrosinase) inhibitory activity of a, b, c and d was measured by oxidation of DOPA. Each crown ether was tested against human Tyrosinase (in the form of melanocytic extract) and commercial (Worthington, USA) mushroom tyrosinase (MT), using the DOPA oxidation assay. Details of the assay mix are included in table 2. [table] Assay examined the change (Optical Density) OD475 nm at 37° C., after 45 minutes reaction in a standard 96-well plate. All ON475 nm were corrected by subtracting the background OD475 nm value of the negative control sample lacking enzyme in the assay mix. […] The background effect of 10% DMSO on tyrosinase activity was also examined for calculation purposes (i.e. the ‘U’ sample).

[1] = target: T1, human Tyrosinase (in the form of melanocytic extract) (Homo sapiens, UniProt P14679); test: Tyrosinase assay by oxidation of DOPA, human tyrosinase (melanocytic extract); assay type: biochemical; details: for OD475 nm (HME) / inhibition at 100 µM / inhibition at 1000 µM / inhibition at 10 µM / % Inhibition (HME): 37° C., 45 minutes; for OD475 nm (HME): background-corrected, uninhibited enzyme control 0.141; for inhibition at 100 µM / inhibition at 1000 µM / inhibition at 10 µM: read-out: % Inhibition (HME); for inhibit the activity of tyrosinase: summary in words, at least one of human or mushroom tyrosinase, inhibitor = colour inhibited by more than 10% of control
T1 construct: 2.5 mg/ml human melanocytic lysate OR; endogenous in cells; host or cells: human melanocytes (lysate/extract)
T1 sequence (P14679 19-529): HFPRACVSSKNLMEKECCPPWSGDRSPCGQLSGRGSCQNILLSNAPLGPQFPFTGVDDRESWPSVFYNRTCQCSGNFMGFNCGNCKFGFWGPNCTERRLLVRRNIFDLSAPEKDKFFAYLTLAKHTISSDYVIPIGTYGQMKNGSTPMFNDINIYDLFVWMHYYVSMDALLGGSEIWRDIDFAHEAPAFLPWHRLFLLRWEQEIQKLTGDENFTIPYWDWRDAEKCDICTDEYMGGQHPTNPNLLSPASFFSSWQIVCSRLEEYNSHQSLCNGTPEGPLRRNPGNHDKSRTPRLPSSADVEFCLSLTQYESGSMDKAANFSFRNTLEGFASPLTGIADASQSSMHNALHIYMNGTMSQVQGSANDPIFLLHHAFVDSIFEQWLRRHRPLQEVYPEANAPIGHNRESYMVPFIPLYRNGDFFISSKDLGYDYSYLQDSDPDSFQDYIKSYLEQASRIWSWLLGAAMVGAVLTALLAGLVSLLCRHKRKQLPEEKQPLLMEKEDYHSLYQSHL
Method: as §1, with “[table]” left out

Row | % Inhibition (MT) (mushroom tyrosinase (MT); 0.1 mM test compound) | OD475 nm (MT) (mushroom tyrosinase (MT); 0.1 mM test compound) | % Inhibition (MT) (mushroom tyrosinase (MT); 1 mM test compound) | OD475 nm (MT) (mushroom tyrosinase (MT); 1 mM test compound) | OD475 nm (HME) ([1]; 0.1 mM test compound) | inhibition at 100 µM ([1]; 0.1 mM test compound) | OD475 nm (HME) ([1]; 1 mM test compound) | inhibition at 1000 µM ([1]; 1 mM test compound) | % Inhibition (MT) (mushroom tyrosinase (MT); 0.01 mM test compound) | OD475 nm (MT) (mushroom tyrosinase (MT); 0.01 mM test compound) | OD475 nm (HME) ([1]; 0.01 mM test compound) | inhibition at 10 µM ([1]; 0.01 mM test compound) | % Inhibition (MT) (mushroom tyrosinase (MT); 0.25 mM test compound) | OD475 nm (MT) (mushroom tyrosinase (MT); 0.25 mM test compound) | % Inhibition (MT) (mushroom tyrosinase (MT); 0.5 mM test compound) | OD475 nm (MT) (mushroom tyrosinase (MT); 0.5 mM test compound) | % Inhibition (HME) ([1]; 0.01 mM test compound) | % Inhibition (HME) ([1]; 1 mM test compound) | SMILES | inhibit the activity of tyrosinase [1]
1 | 25% | 0.128 | 60% | 0.068 | 0.126 | 11% | 0.029 | 79% |  |  |  |  |  |  |  |  |  |  | O=C(O)c1ccc2c(c1)OCCOCCOCCO2 [Compound a] | inhibit the activity of at least one of human or mushroom tyrosinase
2 | 5% | 0.162 | 49% | 0.087 | 0.094 | 33% | 0.027 | 81% | 9% | 0.156 | 0.092 | 35% |  |  |  |  |  |  | O=C(O)c1ccc2c(c1)OCCOCCOCCOc1ccc(C(=O)O)cc1OCCOCCOCCO2 [Compound c] | inhibit the activity of at least one of human or mushroom tyrosinase
3 | 23% | 0.131 |  |  |  |  |  |  |  |  |  |  | 35% | 0.111 | 51% | 0.084 |  |  | O=c1cc(CO)occ1O [Kojic acid, reference compound] | 
4 | 58% | 0.071 | 69% | 0.053 | 0.134 | 5% | 0.110 | 23% | 19% | 0.137 | 0.144 |  |  |  |  |  | No |  | COC(=O)C(C)(C)NC(=O)C(CC(C)C)NC(=O)C(C)NC(=O)c1ccc2c(c1)OCCOCCOCCOc1ccc(C(=O)NC(C)C(=O)NC(CC(C)C)C(=O)NC(C)(C)C(=O)OC)cc1OCCOCCOCCO2 (centres unmarked) [Compound d] | inhibit the activity of at least one of human or mushroom tyrosinase
5 |  |  | 28% | 0.122 |  |  | 0.162 |  | 6% | 0.160 | 0.125 | 12% |  |  |  |  |  | No | O=C(NC1CCCCC1)N(C(=O)c1ccc2c(c1)OCCOCCOCCO2)C1CCCCC1 [Compound b] | inhibit the activity of at least one of human or mushroom tyrosinase
